Measured values as given in US11643424B2, “Cardiopathy-reducing phosphodiester lipids” (Signpath Pharma, Inc., priority 2018, dated 2023).
Read-outs that look alike come from different tables or passages of the source.

Legend:
[1] = tested on: Moxifloxacin-induced QTc prolongation; assay: Cardiac response testing: protection against Moxifloxacin-induced QTc prolongation (ECG telemetry); format: in vivo, adult male Hartley guinea pigs; conditions: for Onset of protection / Time of maximal protection / Duration of complete protection: single oral 2 mg/kg test compound with oral moxifloxacin; for Duration of complete protection: 6 h recording; for inhibition in vivo at 2 mg/kg: Cavia porcellus, po; for Maximal prolongation: QTc
Method: Efficacy evaluation of the compounds of the present invention involved ECG measurements of adult male Hartley guinea pigs wherein PR, QRS, QT, QTc, JT, RR were recorded. In typical experiments, subcutaneous Kaha TR50B bio potential telemeters were surgically implanted in adult male Hartley guinea pigs weighing 300 to 350 g at enrollment. One lead was sutured to the apex of the heart, while another was sutured to the side of the aorta. The animals were allowed to recover from surgery for 5 days prior to being returned to the testing colony. Following recovery, animals were subjected to two rounds of evaluation as follows:
The animals were then returned to their housing to washout the drug over 5 to 7 days.
ECGs were acquired continuously for 6 hours. The animals were then returned to their housing to washout the drug over 5 to 7 days.
ECG analysis over 5 minutes pre-dose and 6 hours post dose consisted in was automated based on pattern recognition algorithms. The analyzed data were binned into 5-minute segments. Intervals such as PR, QRS, QT, QTc, JT and RR were analyzed automatically using AD Instruments LabChart Pro v8. The accuracy of the measurements was verified manually using digital cursors by randomly selecting 3 to 5 segments at any given time postdose. […] The frequency of arrhythmia was quantified and expressed as “% of ECG time spent in abnormal sinus rhythm over entire duration of the recording”.

QTc prolongation = QTc prolongation by increasing oral doses of moxifloxacin, without or with concomitant 14:0 lyso PG
AV block = assay: Drug-induced AV block: intravenous Fingolimod and/or verapamil, without and with oral 14:0 lyso PG (ECG, PR intervals); format: in vivo, guinea pigs
Method: To test this hypothesis, guinea pigs were instrumented (subcutaneous ECG leads) and exposed to increasing intravenous doses of Fingolimod and/or verapamil, without and with an oral dose of 14:0 lyso PG. ECG signals were recorded continuously for 2 hours post-dose for the AV blockers Fingolimod and verapamil. PR intervals were measured following the infusion of Fingolimod. Measurements of PR were stopped when the P wave disconnected from the QRS complexes, indicating 3rd degree AV block.
Guinea pigs exposed to an intravenous infusion of Fingolimod alone transitioned to 1st degree AV block as of a dose of 15 μg/kg, which rapidly progressed to a Mobitz Type-1, 2nd-degree AV block at 20 μg/kg, and finally progressed to 3rd degree AV block as of a dose of 23 μg/kg.
The cohort of guinea pigs exposed to verapamil received an i.v. injection of 0.5 mg/kg, followed 60 minutes later by an intravenous infusion of Fingolimod. A 1st-degree AV block appeared at a dose of 7 μg/kg, changed to a Mobitz-Type-1 2nd degree AV block at 10 μg/kg, and transitioned to 3rd-degree dissociation between P waves and QRS complexes as of 45 μg/kg.
The third cohort of animals received an initial oral gavage of 1.0 mg/kg 14:0 lyso PG, followed 60 minutes later by an intravenous dose of 0.5 mg/kg verapamil. Sixty (60) minutes post-verapamil, Fingolimod was infused into the animals as described above. […] A Mobitz-Type-2 AV block appeared in 2 out of 6 animals with P-QRS dissociation observed at a dose of 51 μg/kg in those two animals, and at 300 μg/kg in the rest of the animals in the cohort.

[2] = 1 h, read-out: Protection at 1 h post dose
[3] = 2 h, read-out: Protection at 2 h post dose
[4] = 4 h, read-out: Protection at 4 h post dose
[5] = 6 h, read-out: Protection at 6 h post dose
[6] = test compound 2 mg/kg oral given with moxifloxacin
[7] = oral 1.0 mg/kg 14:0 lyso PG, then verapamil 0.5 mg/kg i.v., then Fingolimod infusion
[8] = i.v. verapamil 0.5 mg/kg 60 minutes before Fingolimod infusion
[9] = intravenous infusion of Fingolimod alone

SMILES | Onset of protection [1] [h] | Time of maximal protection [1] [h] | Duration of complete protection [1] [h] | inhibition in vivo at 2 mg/kg [1, 2] [%] | inhibition in vivo at 2 mg/kg [1, 3] [%] | inhibition in vivo at 2 mg/kg [1, 4] [%] | inhibition in vivo at 2 mg/kg [1, 5] [%] | Maximal prolongation [1, 6] [ms] | also measured
CCCCCCCCCCCCCC(=O)OC[C@H](COP(=O)([O][MgH])OCC(COC(=O)OCC)OC(=O)OCC)OC(=O)CCCCCCCCCCCCC (stereo partly drawn) [Compound 10, magnesium-2,3-bis((ethoxycarbonyl)oxy)propyl((R)-2,3-bis(tetradecanoyloxy)propyl) Phosphate] | 1 | 2 | 6 | – | – | – | – | – | Protection at 1 h post dose ([1]; percent of Moxifloxacin effect, single oral 2 mg/kg test compound concomitantly with oral moxifloxacin 20 mg/kg, 1 h post dose): 83%
CCCCCCCCCCCCCC(=O)OC[C@H](COP(=O)([O-])OCC(COC(=O)OCC)OC(=O)OCC)OC(=O)CCCCCCCCCCCCC.[Na+] (stereo partly drawn) [Compound 2, Sodium 2,3-bis((ethoxycarbonyl)oxy)propyl ((R)-2,3-bis (tetra decanoyloxy)propyl) Phosphate] | 1 | 2 | 4 | 95 | 88 | 22 | 90 | 4 | –
CCCCCCCCCCCCCC(=O)OC[C@H](COP(=O)([O-])OCC1COC(CCCCC)O1)OC(=O)CCCCCCCCCCCCC.[Na+] (stereo partly drawn) [Compound 6, Sodium (R)-2,3-bis(tetradecanoyloxy)propyl ((2-pentyl-1,3-dioxolan-4-yl)methyl) Phosphate] | 1 | 2 | 6 | 74 | 110 | 115 | 138 | 3 | –
COc1c(N2C[C@@H]3CCCN[C@@H]3C2)c(F)cc2c(=O)c(C(=O)O)cn(C3CC3)c12 [Moxifloxacin, reference compound] | – | – | – | – | – | – | – | – | Maximal prolongation ([1]; Moxifloxacin alone, column head 40 mg/kg): 29 ms
CCCCCCCCCCCCCC(=O)OC[C@H](COP(=O)([O-])OCC(COC(=O)CC(C)C)OC(=O)CC(C)C)OC(=O)CCCCCCCCCCCCC.[Na+] (stereo partly drawn) [Compound 8, Sodium 2,3-bis((3-methylbutanoyl)oxy)propyl ((R)-2,3-bis(tetradecanoyloxy)propyl) Phosphate] | 1 | 2 | 6 | 74 | 97 | 100 | 132 | 2 | –
CCCCCCCCCCCCCC(=O)OC[C@H](COP(=O)([O][MgH])OCC(COC(=O)OCC)OC(=O)OCC)OC(=O)CCCCCCCCCCCCC (stereo partly drawn) [Compound 11, calcium-2,3-bis((ethoxycarbonyl)oxy)propyl ((R)-2,3-bis(tetradecanoyloxy)propyl) Phosphate] | 1 | 2 | 6 | – | – | – | – | – | inhibition in vivo at 2 mg/kg ([1]; 1 h, read-out: Protection at 1 h post dose, percent of Moxifloxacin effect, single oral 2 mg/kg test compound concomitantly with oral moxifloxacin 20 mg/kg, 1 h post dose): 83%; inhibition in vivo at 2 mg/kg ([1]; 2 h, read-out: Protection at 2 h post dose, percent of Moxifloxacin effect, single oral 2 mg/kg test compound concomitantly with oral moxifloxacin 20 mg/kg, 2 h post dose): 94%; inhibition in vivo at 2 mg/kg ([1]; 4 h, read-out: Protection at 4 h post dose, percent of Moxifloxacin effect, single oral 2 mg/kg test compound concomitantly with oral moxifloxacin 20 mg/kg, 4 h post dose): 91%; inhibition in vivo at 2 mg/kg ([1]; 6 h, read-out: Protection at 6 h post dose, percent of Moxifloxacin effect, single oral 2 mg/kg test compound concomitantly with oral moxifloxacin 20 mg/kg, 6 h post dose): 116%; Maximal prolongation ([1]; test compound 2 mg/kg oral given with moxifloxacin, 2 mg/kg): 8 ms
CCCCCCCCCCCCCCCCCC1OCC(COP(=O)([O-])OC[C@@H](COC(=O)CCCCCCCCCCCCC)OC(=O)CCCCCCCCCCCCC)O1.[Na+] (stereo partly drawn) [Compound 4, Sodium (R)-2,3-bis (tetradecanoyloxy)propyl ((2-heptadecyl-1,3-dioxolan-4-yl)methyl) Phosphate] | 1 | 2 | 4 | 95 | 88 | 22 | 90 | 8 | –
CCCCCCCCCCCCCC(=O)OC[C@H](COP(=O)([O-])OCC(COC(=O)CCC)OC(=O)CCC)OC(=O)CCCCCCCCCCCCC.[Na+] (stereo partly drawn) [Compound 7, Sodium 2,3-bis(butyryloxy)propyl ((R)-2,3-bis(tetradecanoyloxy)propyl) Phosphate] | 1 | 2 | 6 | 83 | 100 | 119 | 147 | 4 | –
CCCCCCCCCCCCCC(=O)OC[C@@H](O)COP(=O)(O)OCC(O)CO (mixture of isomers) [14:0 lyso PG, 1-myristoyl-2-hydroxy-sn-glycero-3-phospho-(1′-rac-glycerol)] | – | – | – | – | – | – | – | – | shift in the QTc-dose response of Moxifloxacin (QTc prolongation; concomitant dose of 14:0 lyso PG): statistically significant right-shift; changes in QTc (QTc prolongation; concomitant dose of 14:0 lyso PG with moxifloxacin): no, or very little, changes in QTc; Fingolimod dose at P-QRS dissociation, rest of the animals in the cohort (AV block; [7]): 0.3 mg/kg; animals in which a Mobitz-Type-2 AV block appeared (AV block; [7]): 2 out of 6; Fingolimod dose at P-QRS dissociation, the two animals with Mobitz-Type-2 AV block (AV block; oral 1.0 mg/kg 14:0 lyso PG, then verapamil 0.5 mg/kg i.v., then Fingolimod infusion, 2 out of 6 animals): 0.051 mg/kg; Fingolimod dose at which 1st-degree AV block appeared (AV block; oral gavage 1.0 mg/kg 14:0 lyso PG, 60 min later i.v. verapamil 0.5 mg/kg, 60 min later Fingolimod infusion): 0.2 mg/kg
CCCCCCCCc1ccc(CCC(N)(CO)CO)cc1 [Fingolimod] | – | – | – | – | – | – | – | – | Fingolimod dose at 1st-degree AV block (AV block; [8]): 0.007 mg/kg; Fingolimod dose at 3rd-degree dissociation between P waves and QRS complexes (AV block; [8]): 0.045 mg/kg; Fingolimod dose at Mobitz-Type-1 2nd degree AV block (AV block; [8]): 0.01 mg/kg; Fingolimod dose at 1st degree AV block (AV block; [9]): 0.015 mg/kg; Fingolimod dose at 3rd degree AV block (AV block; [9]): 0.023 mg/kg; Fingolimod dose at Mobitz Type-1, 2nd-degree AV block (AV block; [9]): 0.02 mg/kg
CCCCCCCCCCCCCC(=O)OC[C@H](COP(=O)([O-])OCC(COC(C)=O)OC(C)=O)OC(=O)CCCCCCCCCCCCC.[Na+] (stereo partly drawn) [Compound 1, Sodium (R)-2,3-bis(tetradecanoyloxy)propyl (2,3-diacetoxypropyl) Phosphate] | 1 | 2 | 6 | 118 | 122 | 100 | 116 | 0 | –
CCCCCCCCCCCCCC(=O)OC[C@H](COP(=O)([O-])OCC(COC(=O)C(C)C)OC(=O)C(C)C)OC(=O)CCCCCCCCCCCCC.[Na+] (stereo partly drawn) [Compound 9, Sodium 2,3-bis(isobutyryloxy)propyl ((R)-2,3-bis(tetradecanoyloxy)propyl) Phosphate] | 1 | 2 | 6 | 91 | 94 | 100 | 116 | 3 | –
CCCCCCCCCCCCCCCC1OCC(COP(=O)([O-])OC[C@@H](COC(=O)CCCCCCCCCCCCC)OC(=O)CCCCCCCCCCCCC)O1.[Na+] (stereo partly drawn) [Compound 5, Sodium (R)-2,3-bis(tetradecanoyloxy)propyl ((2-pentadecyl-1,3-dioxolan-4-yl)methyl) Phosphate] | 2 | 2 | 6 | 35 | 113 | 126 | 176 | 0 | –
